From patent US6750028B1, “Anti-fibrotic agent assay” (Ethicon, Inc, priority 1996, dated 2004)
Blank lines part the entries; values can stand above or below the compound they belong to.

How the values were obtained:
TGF-β1 activation [1] = experiment: TGF-β1 activation by Bowes melanoma cells (ELISA); format: cell-based, human; conditions: for % ACTIVE TGF-β1 (STD): BOWES, M6P 100 μM, DCA 100 μM, antibody 1:1500 dil; for effect on TGF-β1 activation, in words: melanoma cells (Bowes)
Procedure: (§1) Each measurement was performed in duplicates.
(§2) It has been shown that cancer cells, such as human breast cancer, some melanoma cell lines and prostate adenocarcinoma cell lines, constitutively release biologically active TGF-β1 into the culture medium (24, 25, 29). Since the homotypic cell culture system would be of advantage due to its simplicity, an attempt was made to implement cancer cells as a method for TGF-β1 activation.

TGF-β1 activation [2] = experiment: TGF-β1 activation by prostate adenocarcinoma cells (ELISA); format: cell-based, human; conditions: for effect on TGF-β1 activation, in words: prostate cancer cells
Procedure: as §1, §2

TGF-β1 mRNA [3] = experiment: mRNA for TGF-β1 in macrophages by Northern blot; format: cell-based, mouse; conditions: LPS alone or LPS with M6P or DCA, FIG. 2
Procedure: The cells were washed with PBS, followed by addition of the extraction buffer provided with the kit (RNeasy RNA extraction kit). The lysed cells were scraped from the dish and collected in microtubes. Samples were either frozen at −70° C. before analysis or directly assessed following manufacturer protocol. Absorbance at 260 nm and 280 nm was measured and the integrity of RNA was evaluated by denaturing formaldehyde agarose gels stained with ethidium bromide.
Northern blot analysis was carried out as described previously (27). Briefly, total RNA samples (5 μg) were diluted in formaldehyde-MOPS buffer and subjected to electrophoresis in a denaturing 1.2% Sea Kem GTG agarose gel along with the RNA size markers. RNA was transferred to a nitrocellulose membrane by capillary transfer. The blots were prehybridized for 3 h at 42° C. in a solution containing 10% dextran sulfate, 2×Denhardt's solution, 50% formamide, 5×SSPE (0.75 M Sodium chloride, 0.05 M sodium phosphate, 0.005 M ethylenediaminetetraacetic acid)/0.1% SDS, and 250 μg/ml of sheared salmon testis DNA. Hybridization solution was essentially the same except that ^32P dCTP-labeled DNA probe and 150 μg/ml of salmon testis DNA were included. The hybridization was carried out for 16 h at 42° C. […]

TGF-β1 activation [4] = experiment: TGF-β1 activation by HMB-2 melanoma cells (ELISA); format: cell-based, human; conditions: for % ACTIVE TGF-β1 (STD): HMB-2, M6P 100 μM, DCA 100 μM, antibody 1:1500 dil; for effect on TGF-β1 activation, in words: melanoma cells (HMB-2)
Procedure: as §1, §2

TGF-β1 activation [5] = experiment: Activation of rHLTGF-β1 by macrophages; format: cell-based, mouse; conditions: 200 pg/ml rHLTGF-β1
Procedure: (§3) Cultured macrophages were lifted from the dish with 3 ml of PBS. The PBS was balanced with 15 ml of RPMI-1640 containing 10% FBS. The cells were counted and then seeded in 100 mm plates at 1×10^6 cells/dish. When the cultured macrophages reached approximately 70% confluency (2-3 days) they were washed with PBS and RPMI-1640 medium containing 5% FBS and 10 ng/ml LPS was applied (FIG. 1). After 24 h of activation with LPS the cells were washed gently with PBS. At this point conditioned medium from confluent fetal dermal fibroblasts was collected and 5 ml was distributed into each dish containing macrophages. The cells were incubated for an additional 24 h, the media were collected, spun down at 600×g for 10 min and stored at 4° C. before TGF-β1 evaluation by ELISA. Each condition was done in duplicate. The cells, washed with PBS, were harvested for total RNA extraction.
as §1
The substitution in the media with purified recombinant latent form of TGF-β1 was tested in an attempt to determine the requirement for fibroblast conditioned media in the macrophage assay. Only 3.3% of rHLTGF-β1 was activated by macrophages when the treatment with LPS was omitted (Table 5).

TGF-β1 activation [6] = experiment: Macrophage activation assay (IC-21 macrophages, LPS, fetal fibroblast conditioned media, ELISA); format: cell-based, mouse
Procedure: as §3
Fetal dermal fibroblasts were seeded in 100 mm dishes at 1×10^6 cell/dish. The cells were grown to confluency (2-3 days). The cultures were washed with PBS and fresh medium, either DMEM supplemented with 10% FBS or AIM-V medium (a serum free medium) for serum-free conditions, was applied for 24 h (FIG. 1). The medium was collected and combined in order to obtain a homogenous pool of latent TGF-β1. The collection of the medium was done just prior to application in the macrophage assay.
as §1

TGF-β1 activation [7] = experiment: Co-culture of BAEC and BASMC, TGF-β1 in conditioned media by ELISA; format: cell-based, bovine
Procedure: For co-culture experiments, BAECs and BASMCs were seeded separately in 35 mm dishes at a density of 40×10^4 cells in DMEM/10% CS (Calf Serum) or 3.2×10^5 BAECs and 0.8×10^5 BASMCs in the same 35-mm dishes. After cell attachment (approximately 2 h) the cells were rinsed with PBS and incubated in 1 ml of DMEM/0.1% BSA for 6 h to produce conditioned media. Conditioned Media were centrifuged and used in the ELISA assay.
as §1
Preliminary experiments were carried out with the aim to adopt the published co-culture system for screening anti-fibrotic agents.

M6P/IGF-II receptor mRNA = M6P/IGF-II receptor mRNA in human neonatal fibroblasts by RT-PCR; format: cell-based
Procedure: (§4) Human neonatal fibroblasts were seeded in 100 mm dishes at 1×10^6 cells/dish. […] In addition, cells were treated with two concentrations of Mannose 1-Phosphate (M1P) (100 and 200 μM) for 24 and 48 h. […] Each treatment was run in duplicates and repetitive analyses were performed.
(§5) The procedure used to transcribe the total RNA was described in detail previously (28). Briefly, the reaction was carried out in a total volume of 25 μl containing 1× reverse transcriptase buffer (50 mM Tris-HCl, pH 8.3, 75 mM KCl, 3 mM MgCl2), 10 mM DTT (Dithiothreitol), 2.5 mM each of dNTPs (Deoxynucleotides), 100 μg/ml of acetylated BSA, 4 units of rRNasin (ribonuclease inhibitor), 200 units of SuperScript™ RNase H^−Reverse Transcriptase, 0.1 μg of oligo (dT)12-18 and 1 μg of total RNA. Incubation was carried out for 1 h at 42° C. and was terminated by the addition of an equal volume of cold water.
(§6) A portion of the first strand cDNA reaction was used in PCR, which was carried out in 25 μl containing 16 mM Tris-HCl, pH 8.3, 50 mM KCl, 1.5 mM MgCl2, 0.01% gelatin, 200 μM of each dNTPs, 1 μM each sense and antisense oligonucleotides and 2.5 units of AmpliTaq DNA polymerase. Amplification was carried out for 35 cycles. Each cycle consisted of: denaturation 1 min at 95° C.; annealing at 55° C. (optimal for the pair of oligonucleotides used) for 2 min; and elongation at 72° C., 3 min. For the final cycle elongation was 7 min. Reaction products were separated by 2% agarose gel electrophoresis and were visualized by ethidium bromide staining. Sizes were determined using Q X 174 DNA/Hae III markers. Restriction digests were performed in order to confirm PCR product specificity. Densitometry was used for quantitative analysis of the ethidium bromide stained gels.

TGF-β1 activation [8] = experiment: BAEC treated with retinoic acid, TGF-β1 in conditioned media by ELISA; format: cell-based, bovine
Procedure: The procedures for preparation of conditioned media were described previously (22). Briefly, for the retinoid experiment, BAEC cells were grown to confluency in 35 mm dishes. The cultures were rinsed with PBS (Phosphate Buffered Saline), and incubated in 1 ml of serum-free DMEM containing 0.1% of BSA and retinoic acid (10 μM) or vehicle (0.5% ethanol). The incubation was carried out for 24 h. The medium was aspirated, the cells were washed with PBS and then incubated in 1 ml of DMEM/0.1% BSA for an additional 12 h to produce conditioned medium. Conditioned media were centrifuged and used in the ELISA assay for TGF-β1 evaluation.
Each measurement was performed in duplicates. […]

[9] = tested on: TGF-β receptor type I mRNA; experiment: TGF-β receptor type I mRNA in human neonatal fibroblasts by RT-PCR; format: cell-based; conditions: M6P, time course of treatment (24 and 48 h)
Procedure: as §4, §5
A portion of the first strand cDNA reaction was used in PCR, which was carried out in 25 μl containing 16 mM Tris-HCl, pH 8.3, 50 mM KCl, 1.5 mM MgCl2, 0.01% gelatin, 200 μM of each dNTPs, 1 μM each sense and antisense oligonucleotides and 2.5 units of AmpliTaq DNA polymerase. Amplification was carried out for 35 cycles. […] Sizes were determined using Q X 174 DNA/Hae III markers. […] Densitometry was used for quantitative analysis of the ethidium bromide stained gels.

M6P/IGF-II receptors = experiment: M6P/IGF-II receptor levels within wounds treated with M6P; format: in vivo; conditions: 3 days post-wounding
TGF-β1 mRNA [10] = experiment: TGF-β1 mRNA in human neonatal fibroblasts by RT-PCR; format: cell-based
Procedure: as §4, §5, §6

[11] = BAEC + RA (10 μM) + test agent 100 μM

Compound: CN(C)c1cccc2c(S(=O)(=O)NCCCCCN)cccc12 [DCA, monodansylcadaverine]
% ACTIVE TGF-β1 (STD) (TGF-β1 activation [1]): 145%
effect on TGF-β1 activation, in words (TGF-β1 activation [1]): no effect
effect on TGF-β1 activation, in words (TGF-β1 activation [2]): no effect
levels of mRNA for TGF-β1, in words (TGF-β1 mRNA [3]): remained the same
% ACTIVE TGF-β1 (STD) (TGF-β1 activation [4]): 110.7%
effect on TGF-β1 activation, in words (TGF-β1 activation [4]): no effect

Compound: rHLTGF-β1: Recombinant human latent TGF-β1
% Active (TGF-β1 activation [5]; LPS): 12.2%
Active TGF-β1 (TGF-β1 activation [5]; LPS): 48.8 (3.5) pg/ml
Total TGF-β1 (TGF-β1 activation [5]; LPS): 399 (44.5) pg/ml
% Active (TGF-β1 activation [5]; No LPS): 3.3%
Active TGF-β1 (TGF-β1 activation [5]; No LPS): 10.9 (7.2) pg/ml
Total TGF-β1 (TGF-β1 activation [5]; No LPS): 324 (7.2) pg/ml

Compound: IGF-II: Recombinant human IGF-II
effect on TGF-β1 activation, in words (TGF-β1 activation [6]): inhibited TGF-β1 activation
active TGF-β1, % Control (STD) (TGF-β1 activation [6]; IGF-II 15 nM): 65.1%
active TGF-β1, % Control (STD) (TGF-β1 activation [6]; IGF-II 30 nM): 54.3%
effect on TGF-β1 activation, in words (TGF-β1 activation [6]; IGF-II 15 and 30 nM): dose-dependent inhibitory effect

expression of mRNA for M6P/IGF-II receptor, in words (M6P/IGF-II receptor mRNA; 1-100 μM, 24 h): not affected
expression of mRNA for M6P/IGF-II receptor, in words (M6P/IGF-II receptor mRNA; 50-200 μM, 48 h): decrease
level of TGF-β receptor type I mRNA, in words [9]: unchanged
Compound: O=C[C@@H](O)[C@@H](O)[C@H](O)[C@H](O)COP(=O)(O)O [M6P, D-mannose 6-phosphate]
% ACTIVE TGF-β1 (STD) (TGF-β1 activation [1]): 113.5%
effect on TGF-β1 activation, in words (TGF-β1 activation [1]): no effect
% ACTIVE TGF-β1 (STD) (TGF-β1 activation [2]; Adenocarcinoma cells, M6P 100 μM, cystamine 100 μM, antibody 1:1500 dil): 91.8%
effect on TGF-β1 activation, in words (TGF-β1 activation [2]): no effect
inhibition of TGF-β1 activation, in words (TGF-β1 activation [7]; 100 μM): did not significantly inhibit
% Active (TGF-β1 activation [7]; Co-culture + M6P 100 μM): 7.5%
Active TGF-β1 (TGF-β1 activation [7]; Co-culture + M6P 100 μM): 58 pg/mL
Total TGF-β1 (TGF-β1 activation [7]; Co-culture + M6P 100 μM): 770 pg/mL
levels of mRNA for TGF-β1, in words (TGF-β1 mRNA [3]): remained the same
inhibitory effect on TGF-β1 activation, in words (TGF-β1 activation [8]; 100 μM, BAEC treated with RA): no significant inhibitory effects
% Active (TGF-β1 activation [8]; [11]): 8.1%
Active TGF-β1 (TGF-β1 activation [8]; [11]): 287 pg/mL
Total TGF-β1 (TGF-β1 activation [8]; [11]): 3544 pg/mL
% ACTIVE TGF-β1 (STD) (TGF-β1 activation [4]): 108.4%
effect on TGF-β1 activation, in words (TGF-β1 activation [4]): no effect
levels of the M6P/IGF-II receptors within the wounds, in words (M6P/IGF-II receptors): downregulated
expression of TGF-β1 cDNA (RT-PCR) (TGF-β1 mRNA [10]; M6P 1 μM, 24 h): 80.9
expression of TGF-β1 cDNA (RT-PCR) (TGF-β1 mRNA [10]; M6P 1 μM, 48 h): 86.3
expression of TGF-β1 cDNA (RT-PCR) (TGF-β1 mRNA [10]; M6P 10 μM, 24 h): 116.2
expression of TGF-β1 cDNA (RT-PCR) (TGF-β1 mRNA [10]; M6P 10 μM, 48 h): 78.8
expression of TGF-β1 cDNA (RT-PCR) (TGF-β1 mRNA [10]; M6P 50 μM, 24 h): 119.3
expression of TGF-β1 cDNA (RT-PCR) (TGF-β1 mRNA [10]; M6P 50 μM, 48 h): 75
expression of TGF-β1 cDNA (RT-PCR) (TGF-β1 mRNA [10]; M6P 100 μM, 24 h): 95.6
expression of TGF-β1 cDNA (RT-PCR) (TGF-β1 mRNA [10]; M6P 200 μM, 24 h): 62.5
expression of TGF-β1 cDNA (RT-PCR) (TGF-β1 mRNA [10]; M6P 200 μM, 48 h): 28.8

Compound: Cl.Cl.NCCCCN [Putrescine, putrescine-dihydrochloride]
active TGF-β1, % Control (STD) (TGF-β1 activation [6]; 100 μM): 80.6%
